“Also recorded” adds a separate entry of the source.
Experiments:
[1] = tested on: MCF-7 breast cancer cells; assay: Cell growth / cytotoxicity experiments (phase contrast imaging, cell number); format: cell-based; conditions: MCF-7 cells
Method: Small molecular dyes are known^86 to intercalate with the DNA on account of electrostatic and base-pair interactions. The presence of these interactions inhibits enzyme function, elevating the cytotoxicity in living cells. To test the cytotoxicity of dye 9·4Cl, (FIG. 6) a series of cell uptake and viability experiments using MCF-7 breast cancer cells were performed. […] Moreover, the cells were viable and treatments of up to 10 μM concentration are non-cytotoxic for up to 64 h post-treatment.
MCF-7 Cells were plated in a 96-well culture plate at a density of 0.01×10^6 cells per well in Dulbecco's modified eagle medium (DMEM) media with 10% fetal bovine serum (FBS) and 1% Penicillin-Streptomycin. Cells were cultured for 24 h then treated with the compounds at a range of concentrations from 0.1-50 μM. Upon treatment, cells were placed in a BioTek LionheartFX system, where they were imaged at 4× magnification every 3 h for 72 h under standard culture conditions (37° C., 5% CO2). Phase contrast images were processed and analyzed with BioTek Gen5 analysis software to identify cell number at each time point during the culture period.
(§1) MCF-7 Breast cancer cells were grown in standard Dulbecco's modified eagle medium (DMEM), which was supplemented with 10% Fetal Bovine Serum (FBS) and 1% Penicillin-Streptomycin (Corning). Cells were seeded into an 8-well imaging coverglass chamber (manufacturer-CellVis) or multiwell plate using phenol red free DMEM about 24 h prior to treatment. Dye 9·4Cl was resuspended in deionized H2O before being diluted to their final concentrations in the cell culture media. Cells were treated with the dye for 24 h prior to imaging. Uptake assays were carried out at concentrations from 1-50 μM, including a vehicle control (untreated). For the cell growth assays, cells were treated with the dye for 24 h at a range of concentrations from 0.1-50 μM.
For the cell cytotoxicity experiments, MCF-7 cells were plated in a 96-well culture plate at a density of 0.01×10^6 cells per well in DMEM media with 10% FBS and 1% Penicillin-Streptomycin. Cells were cultured for 24 h before being treated with the dye at a range of concentrations from 0.1-50 μM. After treatment, cells were placed in a BioTek LionheartFX system, where they were imaged at 4× magnification every 3 h for 72 h under standard (37° C., 5% CO2) culture conditions. Phase contrast images were processed and analyzed with BioTek Gen5 analysis software to identify cell numbers at each time point during the culture period.

[2] = tested on: MCF-7 breast cancer cells; assay: Cell uptake and live cell laser scanning confocal imaging; format: cell-based; conditions: for uptake and intracellular distribution (confocal images): 24 h, λex=405 nm
Method: Because of its low cytotoxicity and emission (FIG. 3) in the green region (548 nm) at micromolar concentrations (ΦF=0.15), water-soluble 9·4Cl was subjected to live cell imaging with MCF-7 breast cancer cells. Living cells treated with the tetracationic cyclophane at 50 and 20 μM (FIG. 7) and as low as 1 μM (FIG. 10) concentrations, were imaged by laser scanning confocal microscopy.
as §1
Confocal imaging was performed on a Leica SP8 laser scanning confocal microscope on a DMi8 […] stand with LAS X software in the Biological Imaging Facility (BIF) at Northwestern University. Uptake images were taken with a 63×/1.4 NA objective, scanning at a zoom of two with a pinhole of one Airy unit (AU) at 600 Hz with a galvo scanner and line averaging of two. Images were 92.35×92.35 μm (1024×1024) with 10 slices in the z direction with a step size of 0.3 μm (total stack volume 3.0 μm). A single excitation wavelength (405 nm) was used at a power of approximately 14 μW. For the emission collection, a Leica spectral Hybrid (HyD) detector set to collect a wavelength range of 500-650 nm (with a gain of 24%) was used. A transmitted light image was also collected simultaneously using the timeline photomultiplier (TL-PMT). Images were processed with FIJI/ImageJ (NIH) and settings were kept consistent throughout the series of images. Images presented are maximum intensity projections.

[3] = Transient absorption (fsTA/nsTA) and time-resolved fluorescence spectroscopy; format: physicochemical; conditions: in H2O
Solubility (qualitative) = format: physicochemical; conditions: Cl− salt
[4] = Absolute fluorescence quantum yield (integrating sphere); format: physicochemical; conditions: 414 nm excitation

COc1cc2c(OC)cc1-c1cc[n+](cc1)Cc1ccc(cc1)C[n+]1ccc(cc1)-c1cc(OC)c(cc1OC)-c1cc[n+](cc1)Cc1ccc(cc1)C[n+]1ccc-2cc1 [9·4Cl]
cell growth ([1]; concentrations of 5 μM and above): decreases gradually | cell death ([1]; higher concentrations (range tested up to 50 μM)): minimal cell death is observed | growth of the cells versus non-treated control cells ([1]; low concentrations (up to 1 μM)): comparable with that of non-treated control cells | cytotoxicity ([1]; treatments of up to 10 μM, up to 64 h post-treatment): non-cytotoxic | uptake and intracellular distribution (confocal images) ([2]; 50 μM and 10 μM, emission 500-650 nm): taken up by living cells and concentrated in intracellular compartments | uptake and intracellular distribution (confocal images) ([2]; MCF-7, 1 μM, emission 500-650 nm): taken up by living cells and concentrated in intracellular compartments | fluorescence in cells ([2]; MCF-7, 405 nm laser excitation, emission 500-650 nm): fluoresces brightly in cells | cell uptake ([2]; MCF-7 cells, 1-50 μM): readily taken up by cells | cell uptake at low treatment concentrations ([2]; as low as 1 μM): readily taken up by cells | CT state lifetime [3]: 2.69±0.02 ns | rate constant k1 from TA data [3]: (1.4 ± 0.3 ps)^−1 (ps)^−1 | non-radiative decay rate constant kNR ([3]; kNR = kobs(1 − ΦF)): (3.16 ± 0.02 ns)^−1 (ns)^−1 | solubility in H2O (Solubility (qualitative)): readily soluble; also recorded: Water soluble | ΦF in the solid-state (powder) [4]: 0.016±0.005

Reference: patent US20250085201A1, “SUBSTITUTED QUADRUPOLAR FLUORESCENT DYES FOR LIVE CELL IMAGING” (Northwestern University, priority 2023, published 2025)
